According to patent US20090018111A1, “Novel Antimicrobial Medicament” (priority 2004, published 2009):
Where two headings read alike, the source gives them in different places.

Tests used:
Experiment in all cases: Sensitivity test (agar dilution)
E. aerogenes ATCC13048 = assay type: cell-based, Enterobacter aerogenes; conditions: Klebsiella aerogenes
In short: (§1)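 Water-dissolved compounds, alone or mixed, were incorporated into Mueller Hinton agar at twofold serial concentrations. Spot inoculation used about 5 μl of about 10^6 CFU/ml suspension.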

P. aeruginosa TL-2666 = assay type: cell-based, Pseudomonas aeruginosa; conditions: Pseudomonas aeruginosa
In short: as §1

P. aeruginosa IFO3451 = assay type: cell-based, Pseudomonas aeruginosa; conditions: Pseudomonas aeruginosa
In short: as §1

S. epidermidis IAM1296 = assay type: cell-based, Staphylococcus epidermidis; conditions: Staphylococcus epidermidis
In short: as §1

`C[C@H]1C=C(c2csc(SC3=C(C(=O)O)N4C(=O)[C@H]([C@@H](C)O)[C@H]4[C@H]3C)n2)CN1` [SM, (4R,5S,6S)-6-[(1R)-1-Hydroxyethyl]-4-methyl-3-({4-[(5S)-5-methyl-2,5-dihydro-1H-pyrrol-3-yl]-1,3-thiazol-2-yl}sulfanyl)-7-oxo-1-azabicyclo[3.2.0]hept-2-ene-2-carboxylic acid] showed an MIC (E. aerogenes ATCC13048; ATCC13048, Concomitant (MEPM:SM = 1:1), read-out: MIC) of no more than 0.016 µg/mL, an MIC (E. aerogenes ATCC13048; ATCC13048, Concomitant (MEPM:SM = 1:2), read-out: MIC) of 0.063 µg/mL and an MIC (E. aerogenes ATCC13048; ATCC13048, Concomitant (MEPM:SM = 1:4), read-out: MIC) of 0.125 µg/mL. It also gave an MIC (E. aerogenes ATCC13048; ATCC13048, Concomitant (PAPM:SM = 1:1), E. aerogenes ATCC13048, read-out: MIC concomitant) of 0.25 µg/mL, an MIC (E. aerogenes ATCC13048; ATCC13048, Concomitant (PIPC:SM = 1:1), E. aerogenes ATCC13048, read-out: MIC concomitant) of 8 µg/mL and an MIC (E. aerogenes ATCC13048; ATCC13048, Concomitant drug (MEPM:SM = 2:1), read-out: MIC) of 0.016 µg/mL. The MIC (E. aerogenes ATCC13048; ATCC13048, alone, read-out: MIC) was 8 µg/mL, the MIC (E. aerogenes ATCC13048; ATCC13048, drug alone, E. aerogenes ATCC13048, read-out: MIC alone) was 8 µg/mL and the MIC (P. aeruginosa TL-2666; TL2666, Concomitant (AZT:SM = 1:1), P. aeruginosa TL-2666, read-out: MIC concomitant) was 8 µg/mL. It also gave an MIC (P. aeruginosa TL-2666; TL2666, Concomitant (BIPM:SM = 1:1), P. aeruginosa TL-2666, read-out: MIC concomitant) of 1 µg/mL, an MIC (P. aeruginosa TL-2666; TL2666, Concomitant (CAZ:SM = 1:1), P. aeruginosa TL-2666, read-out: MIC concomitant) of 8 µg/mL and an MIC (P. aeruginosa TL-2666; TL2666, Concomitant (CPFX:SM = 1:1), P. aeruginosa TL-2666, read-out: MIC concomitant) of 2 µg/mL. It also gave an MIC (P. aeruginosa TL-2666; TL2666, Concomitant (DRPM:SM = 1:1), P. aeruginosa TL-2666, read-out: MIC concomitant) of 1 µg/mL, an MIC (P. aeruginosa TL-2666; TL2666, Concomitant (IPM:SM = 1:1), read-out: MIC) of 1 µg/mL and an MIC (P. aeruginosa TL-2666; TL2666, Concomitant (MEPM:SM = 1:1), read-out: MIC) of 1 µg/mL. For the same molecule, the MIC (P. aeruginosa TL-2666; TL2666, Concomitant (MEPM:SM = 1:2), read-out: MIC) was 2 µg/mL, the MIC (P. aeruginosa TL-2666; TL2666, Concomitant (MEPM:SM = 1:4), read-out: MIC) was 4 µg/mL and the MIC (P. aeruginosa TL-2666; TL2666, Concomitant (PAPM:SM = 1:1), P. aeruginosa TL-2666, read-out: MIC concomitant) was 8 µg/mL. It also gave an MIC (P. aeruginosa TL-2666; TL2666, Concomitant (PIPC:SM = 1:1), P. aeruginosa TL-2666, read-out: MIC concomitant) of 16 µg/mL, an MIC (P. aeruginosa TL-2666; TL2666, Concomitant drug (MEPM:SM = 2:1), read-out: MIC) of 0.5 µg/mL and an MIC (P. aeruginosa TL-2666; TL2666, alone, read-out: MIC) of 16 µg/mL. The MIC (P. aeruginosa TL-2666; TL2666, drug alone, P. aeruginosa TL-2666, read-out: MIC alone) was 16 µg/mL, the MIC (P. aeruginosa IFO3451; IFO3451, Concomitant (AZT:SM = 1:1), P. aeruginosa IFO3451, read-out: MIC concomitant) was 2 µg/mL and the MIC (P. aeruginosa IFO3451; IFO3451, Concomitant (BIPM:SM = 1:1), P. aeruginosa IFO3451, read-out: MIC concomitant) was 0.25 µg/mL. For the same molecule, the MIC (P. aeruginosa IFO3451; IFO3451, Concomitant (CAZ:SM = 1:1), P. aeruginosa IFO3451, read-out: MIC concomitant) was 2 µg/mL, the MIC (P. aeruginosa IFO3451; IFO3451, Concomitant (CPFX:SM = 1:1), P. aeruginosa IFO3451, read-out: MIC concomitant) was 0.125 µg/mL and the MIC (P. aeruginosa IFO3451; IFO3451, Concomitant (DRPM:SM = 1:1), P. aeruginosa IFO3451, read-out: MIC concomitant) was 0.25 µg/mL. It also gave an MIC (P. aeruginosa IFO3451; IFO3451, Concomitant (IPM:SM = 1:1), read-out: MIC) of 0.5 µg/mL, an MIC (P. aeruginosa IFO3451; IFO3451, Concomitant (MEPM:SM = 1:1), read-out: MIC) of 0.5 µg/mL and an MIC (P. aeruginosa IFO3451; IFO3451, Concomitant (MEPM:SM = 1:2), read-out: MIC) of 1 µg/mL. The MIC (P. aeruginosa IFO3451; IFO3451, Concomitant (MEPM:SM = 1:4), read-out: MIC) was 2 µg/mL, the MIC (P. aeruginosa IFO3451; IFO3451, Concomitant (PAPM:SM = 1:1), P. aeruginosa IFO3451, read-out: MIC concomitant) was 2 µg/mL and the MIC (P. aeruginosa IFO3451; IFO3451, Concomitant (PIPC:SM = 1:1), P. aeruginosa IFO3451, read-out: MIC concomitant) was 8 µg/mL. The MIC (P. aeruginosa IFO3451; IFO3451, Concomitant drug (MEPM:SM = 2:1), read-out: MIC) was 0.25 µg/mL, the MIC (P. aeruginosa IFO3451; IFO3451, alone, read-out: MIC) was 8 µg/mL and the MIC (P. aeruginosa IFO3451; IFO3451, drug alone, P. aeruginosa IFO3451, read-out: MIC alone) was 8 µg/mL. It also gave an MIC (S. epidermidis IAM1296; IAM1296, Concomitant (AZT:SM = 1:1), S. epidermidis IAM1296, read-out: MIC concomitant) of 0.031 µg/mL, an MIC (S. epidermidis IAM1296; IAM1296, Concomitant (BIPM:SM = 1:1), S. epidermidis IAM1296, read-out: MIC concomitant) of 0.031 µg/mL and an MIC (S. epidermidis IAM1296; IAM1296, Concomitant (CAZ:SM = 1:1), S. epidermidis IAM1296, read-out: MIC concomitant) of 0.031 µg/mL. It also gave an MIC (S. epidermidis IAM1296; IAM1296, Concomitant (CPFX:SM = 1:1), S. epidermidis IAM1296, read-out: MIC concomitant) of 0.031 µg/mL, an MIC (S. epidermidis IAM1296; IAM1296, Concomitant (DRPM:SM = 1:1), S. epidermidis IAM1296, read-out: MIC concomitant) of 0.031 µg/mL and an MIC (S. epidermidis IAM1296; IAM1296, Concomitant (IPM:SM = 1:1), read-out: MIC) of 0.016 µg/mL. The MIC (S. epidermidis IAM1296; IAM1296, Concomitant (MEPM:SM = 1:1), read-out: MIC) was no more than 0.016 µg/mL, the MIC (S. epidermidis IAM1296; IAM1296, Concomitant (MEPM:SM = 1:2), read-out: MIC) was no more than 0.031 µg/mL and the MIC (S. epidermidis IAM1296; IAM1296, Concomitant (MEPM:SM = 1:4), read-out: MIC) was no more than 0.063 µg/mL.
